This passage reports GI50 and TGI results from PubChem BioAssay (NCI).

Assay in all cases: NCI tumour cell line growth inhibition, 48 h
The subject of test [1] is BT-549 breast.
The subject of test [2] is SF-268 CNS.
The subject of test [3] is UACC-62 melanoma.
Test [4] has as its system SR leukemia.
The test system of test [5] is DU-145 prostate.
Test [6] deals with SF-539 CNS.
Test [7] concerns HT29 colon.
For test [8], the system named is SK-MEL-28 melanoma.
The subject of test [9] is UO-31 renal.
Test [10] relates to T-47D breast.

“And” between values parts separate entries of the source, which are not always exact repeats. Equal entries are not always repeated.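 Step 1: Grow cells in 96-well plates. Step 2: Expose to compound for 48 hours at 5 concentrations. Step 3: Interpolate endpoints linearly; if unreached, use highest concentration. GI50 is the concentration that inhibits growth by half. TGI is the concentration that stops growth completely.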

In the case of `CCOc1ccccc1/C=N\N=C(N/N=C/c1ccccc1OCC)N/N=C/c1ccccc1OCC`, the GI50 is 2.67 µM in test [1]; 1.62 µM in [2]; 2.05 µM in test [3]; 3.23 µM in test [4]; 2.45 µM in test [5]; 2.41 µM in test [6]. Besides, the figures for the GI50 in [7], in test [8] and in test [9] were 2.23 µM, 4.38 µM and 1.73 µM, respectively. In addition, the TGI in test [1], in test [2], in test [3], in [4], in test [5] and in test [6] was over 100 µM in each case. Also, the TGI in test [7], in test [8] and in [9] was over 100 µM throughout.
On to `COC(=O)/C=C1\CCC2[C@@H](C(=O)CC3[C@]2(C)CCC[C@@]3(C)C(=O)OC)C1C` (stereo not given in full), for which the TGI is 52.1 µM in [2]; 30 µM in [3]; 61.1 µM in test [6]; 61 µM in test [7]; 31.8 µM in [8]; 44.4 µM in test [9].
Turning to `Cc1nc2ccccc2c(=O)n1/N=C(\N=Nc1ccccc1)c1ccccc1Cl`, the TGI is over 100 µM in test [2]; over 100 µM in [3]; 65.2 µM in test [6]; over 100 µM in [7]; over 100 µM in test [8]; over 100 µM in test [9].
In the case of `COC(=O)CCc1n(Cc2ccc3ccccc3c2)c2ccccc2[n+]1Cc1ccc2ccccc2c1`, the GI50 in [2] is 1.38 µM; in test [3] it was 0.361 µM; in test [10], 0.222 µM; in test [4], 0.403 µM; in test [5] it was 1.45 µM; in test [6], 1.07 µM. The GI50 is 0.571 µM in test [7], 0.8 µM in [8] and 2.25 µM in [9]. Further, the TGI turned out to be 2.99 µM in test [2]; 1.59 µM in test [3]; 2.65 µM in test [10]; 2.05 µM in [4]; 3.34 µM in test [5]; 2.45 µM in test [6]. For the same compound, the TGI in test [7] amounted to 1.97 µM; in [8], 2.46 µM; in test [9], 10.2 µM.
Take `O=CCCn1[nH]c(=O)ccc1=O`: the TGI in test [2], in test [3], in test [4], in [6], in test [7] and in [8] was over 100 µM in each case. The compound also gave a TGI in test [9] of over 100 µM.
For `O=CN/C=C/c1ccccc1`, the TGI in test [2], in test [3], in [4], in [5], in test [6] and in test [7] was over 100 µM throughout. The TGI in [8] and in test [9] was over 100 µM in each case.
Turning to `CCNCC(=O)Nc1ccc2c(c1)C(=O)c1ccc(NC(=O)CNCC)cc1C2=O`, the TGI in test [2] is 16.6 µM; in test [3], 17.8 µM; in [10], 17.1 µM; in test [5], 11.7 µM; in test [6], 16.2 µM; in [7] it was 9.87 µM. The TGI is 19.2 µM in test [8] and 8.9 µM in test [9].
Take `C=CCCn1nc(-c2ccccc2)oc1=O`: the TGI in test [2], in [3], in [4], in test [6], in test [7] and in test [8] was over 100 µM throughout. For the same compound, in [9], the TGI is over 100 µM.
For `O=C1CCCc2ccc([N+](=O)[O-])c(O)c21`, the TGI in test [2], in test [3], in test [4], in test [6], in test [7] and in test [8] was over 100 µM in each case. The compound further showed a TGI in [9] of over 100 µM.
For `CCOC(=O)NC(=O)c1cn(CCSCCOC(=O)NCCCCCCNC(=O)OCCSCCn2cc(C(=O)NC(=O)OCC)c(=O)n(C)c2=O)c(=O)n(C)c1=O`, the TGI in test [2] is over 100 µM; in test [3], over 100 µM; in test [4], over 100 µM; in [6], 80.1 µM; in test [7], over 100 µM; in [8], over 100 µM. The same compound gave a TGI in [9] of over 100 µM.
As for `COc1ccc(/C=C/c2onc3c(=O)n(C)nc(-c4ccccc4)c23)cc1`, the TGI in test [2], in [3], in test [6], in test [7], in [8] and in test [9] was over 100 µM each time.
With `Cn1cnc([N+](=O)[O-])c1Sc1n[nH]c(-c2ccc(Cl)cc2)n1`, the TGI in [2] was 50.7 µM; in test [3], 28.4 µM; in [4], 42 µM; in test [6], 29.9 µM; in [7] it was 42.5 µM; in [8], 30.3 µM. The compound further gave a TGI in [9] of 60.5 µM.
As for `C[C@@H]1CC[C@@]2(C)OC(c3ccccc3)[C@H](CO)N2C1=O` (stereo not given in full), the TGI in test [2], in test [3], in [4], in test [6], in [7] and in test [8] was over 100 µM each time.
Take `C[C@]12Cc3conc3C(O)=C1CC[C@@H]1C2CC[C@@]2(C)C1CC[C@@H]2O` (stereo not given in full): the TGI was 73.1 µM in [2]; 54.6 µM in test [3]; 44 µM in test [6]; over 100 µM in test [7]; over 100 µM in [8]; 53.3 µM in test [9].
In the case of `CC[C@]12CN3CCc4c([nH]c5ccccc45)[C@@](C(=O)OC)(c4cc5c(cc4OC)N(C)[C@H]4[C@@](O)(C(=O)OC)[C@H](OC(C)=O)[C@]6(CC)C=CCN7CC[C@]54[C@@H]76)CC(C3)[C@H]1O2` (stereo not given in full), the GI50 is 0.343 µM in [1]; 0.226 µM in [2]; 0.224 µM in test [3]; 0.121 µM in test [5]; 0.128 µM in test [6]; 0.131 µM in test [7]. Moreover, the GI50 in test [9] is 1.83 µM. The TGI in [2] is over 68.1 µM; in [3], 76.9 µM and > 50 µM; in [6], 1.8 µM and 9.39 µM; in test [7] it was over 73.5 µM; in test [8] it was 93.1 µM; in test [9] it was over 88.5 µM.
On to `COc1cccc2c1C(=O)c1c(O)c3c(c(O)c1C2=O)C[C@](O)(C(=O)CO)C[C@H]3O[C@@H]1C[C@@H](NC(=O)CCCN(C)C2(c3ccc(F)cc3)CC3CCC2C3)[C@H](O)[C@@H](C)O1` (stereo not given in full), for which the GI50 was 5.07 µM in test [1]; 0.889 µM in test [3]; 0.311 µM in test [4]; 0.893 µM in [5]; 0.846 µM in [6]; 0.881 µM in test [7]. In addition, the GI50 in test [8] is 0.946 µM; in [9], 6.23 µM. In addition, the TGI in test [1] was determined as 13.7 µM; in test [3] it was 1.92 µM; in test [4], 1.52 µM; in [5], 1.89 µM; in [6] it was 1.56 µM; in test [7], 1.92 µM. In addition, the TGI was found to be 1.72 µM in test [8] and 14.5 µM in [9].
As to `CN(C)CC1(C)CC/C(=C\c2ccc(Cl)cc2)C1=O` (stereo not given), the TGI in test [2] was over 100 µM; in test [3], 64.9 µM; in test [6], over 100 µM; in [7] it was over 100 µM; in test [8], over 100 µM; in test [9], over 100 µM.
With `c1cc[c]([Ge]([O]c2cccc3cccnc23)([c]2ccccc2)[c]2ccccc2)cc1`, the GI50 is 3.55 µM in test [2]; 4.6 µM in test [3]; 3.36 µM in test [6]; 3.8 µM in test [7]; 3.56 µM in test [8]; 11.5 µM in test [9]. In addition, the TGI in [2] was found to be 15 µM; in test [3], 16.4 µM; in test [6], 11.3 µM; in [7] it was 10.8 µM; in test [8], 14.3 µM; in test [9], 23.7 µM.
Regarding `C=C(C)CC(C(=O)O)c1ccc(C)cc1` (stereo not given), the TGI in [2], in test [3], in test [4], in test [6], in [7] and in [8] was over 100 µM throughout.
Turning to `N#CC(Sc1ccccc1)C(N)=O` (stereo not given), the TGI in test [2], in [3], in test [4], in test [6], in test [7] and in test [9] was over 100 µM throughout.
Consider `COc1ccc(OC)c(N2CC(O)=C(c3nc4ccccc4s3)C2=N)c1`, for which the GI50 in test [2] is over 100 µM; in test [3] it was 26.4 µM; in test [10], over 100 µM; in test [4], 6.77 µM; in test [5], over 100 µM; in test [6], 83.8 µM. Moreover, the figures for the GI50 in [7], in test [8] and in test [9] were 42.8 µM, 49.5 µM and 36.2 µM, respectively. Moreover, the TGI in test [2], in test [3], in test [10], in test [4], in [5] and in test [6] was over 100 µM throughout. The TGI in test [7], in test [8] and in [9] was over 100 µM each time.
As to `COc1ccc(C2(Cl)C(Cl)(C(F)(F)F)C2(Cl)C(F)(F)F)cc1` (stereo not given), the TGI in test [2] stood at 29 µM; in test [3], 26.4 µM; in test [4] it was 30.7 µM; in test [6] it was 28.9 µM; in [7], 27.8 µM; in [8], 29 µM. This compound returned a TGI in [9] of 29.5 µM.
Take `CC(C)C1=Cc2ccc3c(c2C(=O)C1=O)CCCC3`: the TGI came to 16.6 µM in [2]; 15.4 µM in [3]; 0.567 µM in test [10]; 2.77 µM in test [4]; 32 µM in test [5]; 16.9 µM in test [6]. In addition, the figures for the TGI in test [7], in [8] and in test [9] were 25.1 µM, 15.8 µM and 6.74 µM, respectively.
Turning to `C=CC12CCCCC1CC(C(=O)OC)=C(O)C2` (stereo not given), the TGI in test [2], in test [3], in test [4], in [6], in test [7] and in test [8] was over 100 µM each time. In [9], this compound showed a TGI of over 100 µM.
In the case of `CCOC(=O)C1CC(=O)C=C2CCCCC21` (stereo not given), the TGI in test [2], in test [3], in test [6], in test [7], in [8] and in test [9] was over 100 µM in each case.
Turning to `O=C1CCC2(c3ccc(Cl)cc3)Nc3ccccc3N12` (stereo not given), the TGI in [2], in test [4], in test [6], in test [7], in test [8] and in test [9] was over 100 µM throughout.
As to `CN1CCN(C)C1c1ccc(C2N(C)CCN2C)cc1`, the GI50 is 39.8 µM in test [2]; 56.9 µM in test [3]; 20.4 µM in test [10]; 28.5 µM in test [4]; 30.2 µM in [5]; 35.6 µM in [6]. In addition, the GI50 in test [7] is 21.2 µM; in test [8] it was 67.8 µM; in [9], over 100 µM. Moreover, the TGI in test [2], in test [3], in test [10], in [4], in test [5] and in test [6] was over 100 µM each time. Besides, the TGI in test [7] is 56.4 µM; in test [8] it was over 100 µM; in [9] it was over 100 µM.
`O/N=C1/CCCC/C1=C\c1ccc(Cl)c(Cl)c1`: the TGI in [2] was over 100 µM; in test [3], over 100 µM; in test [6] it was 41.1 µM; in test [7], 39.9 µM; in [8] it was over 100 µM; in test [9], 46.2 µM.
`O=C(O)c1cnc2c(ccc3[nH]cccc32)c1=O`: the TGI in test [2], in [3], in test [4], in test [6], in test [7] and in test [8] was over 100 µM each time. Moreover, the TGI in test [9] is over 100 µM.
